Values of other authors as cited in patent publication US6191117A, “Methods of producing weight loss and treatment of obesity” (priority 2000, dated 2001).

Experiments:
epileptic patients [1] = test system: epileptic patients
[2] = test system: patients treated for epilepsy
epileptic patients [3] = details: human, in vivo

In the case of NC(=O)OCC(COC(N)=O)c1ccccc1 [FBM], the “activity at the NMDA receptor” value (NMDA receptor) is listed as “glycine site NMDA antagonist”, the “activity at the kainate/AMPA receptor” value (kainate/AMPA receptor) is listed as “interaction at the kainate/AMPA receptor” and the “action on sodium channel” value (sodium channel) is listed as “modulation of the Na++ channel conductance”. The “action on GABA” value (GABA receptor) was “facilitation of the GABA receptor”, the “interaction at L-type calcium channels” value (L-type calcium channels) was “an interaction at the L-type calcium channels” and the “aplastic anemia and hepatic failure, 1994 reports” value (epileptic patients [1]; 1994 reports) was “causing aplastic anemia and hepatic failure”. For the same molecule, the thrombocytopenia and neutropenia (epileptic patients [1]; add-on therapy, Lennox-Gestalt Syndrome, prior to FDA approval) was “Several mild cases of thrombocytopenia and neutropenia”, the “aplastic anemia or hepatic dysfunction after FDA warning” value (epileptic patients [1]; adjunctive FBM, refractory epilepsy, serum levels monitored) was “No cases of aplastic anemia or hepatic dysfunction” and the “safety of long usage” value (epileptic patients [1]; adjunctive therapy, at least one year) was “relatively safe after usage for at least one year”. The “aplastic anemia or hepatic dysfunction prior to approval” value (epileptic patients [1]; prior to drug approval) was “no reported cases of aplastic anemia or hepatic dysfunction”, the “aplastic anemia attributable to FBM monotherapy” value (epileptic patients [1]; recent analysis) was “only several cases of aplastic anemia” and the drug interactions (epileptic patients [1]; with other antiepileptic drugs) was “elevation of dilantin, depakote, phenobarbitol levels and the toxic epoxide metabolite of tegretol”. For the same molecule, the weight loss ([2]; FBM monotherapy, non-obese patients) was 5%, the “course of weight loss” value ([2]; add-on therapy, partial epilepsy, non-obese patients) was “transient and returned to baseline after twenty weeks” and the “anorexia and weight loss” value ([2]; patients treated for epilepsy) was “induce anorexia and weight loss”. The “cognition and fine motor function” value (epileptic patients [3]) was “increase both cognition and fine motor function”.
